Assay results published in publication PMC12969314 (European journal of medicinal chemistry, 2022).

Assays:
D4 receptor = target: T1, D4 receptor (Homo sapiens, UniProt P21917); assay type: binding; conditions: for selectivity against the dopamine receptor family: σ1 over D1-5
T1 sequence (P21917 1-419): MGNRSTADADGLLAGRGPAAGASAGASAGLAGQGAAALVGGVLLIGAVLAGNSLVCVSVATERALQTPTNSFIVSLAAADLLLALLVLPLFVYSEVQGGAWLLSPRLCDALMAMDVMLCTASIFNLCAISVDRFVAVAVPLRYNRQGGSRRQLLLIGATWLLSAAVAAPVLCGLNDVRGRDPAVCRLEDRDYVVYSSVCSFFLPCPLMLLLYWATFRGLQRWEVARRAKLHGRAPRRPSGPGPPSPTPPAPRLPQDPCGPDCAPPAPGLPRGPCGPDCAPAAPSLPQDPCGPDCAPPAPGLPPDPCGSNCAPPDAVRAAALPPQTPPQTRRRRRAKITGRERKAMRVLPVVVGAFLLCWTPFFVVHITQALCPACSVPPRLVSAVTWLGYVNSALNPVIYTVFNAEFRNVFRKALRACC

σ2 receptor = σ2 receptor (Homo sapiens, UniProt Q5BJF2); assay: σ2 receptor radioligand binding, [3H]DTG, HEK293 membranes; conditions: ratio, σ1 over σ2
Sequence of σ2 receptor (Q5BJF2 whole entry, species assumed): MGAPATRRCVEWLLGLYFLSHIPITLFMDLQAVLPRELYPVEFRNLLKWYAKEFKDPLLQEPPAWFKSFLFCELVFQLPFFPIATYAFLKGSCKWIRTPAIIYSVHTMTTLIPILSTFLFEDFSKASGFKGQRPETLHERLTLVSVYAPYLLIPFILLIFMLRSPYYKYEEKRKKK

SERT = SERT (Homo sapiens, UniProt P31645); assay: PDSP panel binding, SERT; conditions: σ1 over SERT
Sequence of SERT (P31645 whole entry, species assumed): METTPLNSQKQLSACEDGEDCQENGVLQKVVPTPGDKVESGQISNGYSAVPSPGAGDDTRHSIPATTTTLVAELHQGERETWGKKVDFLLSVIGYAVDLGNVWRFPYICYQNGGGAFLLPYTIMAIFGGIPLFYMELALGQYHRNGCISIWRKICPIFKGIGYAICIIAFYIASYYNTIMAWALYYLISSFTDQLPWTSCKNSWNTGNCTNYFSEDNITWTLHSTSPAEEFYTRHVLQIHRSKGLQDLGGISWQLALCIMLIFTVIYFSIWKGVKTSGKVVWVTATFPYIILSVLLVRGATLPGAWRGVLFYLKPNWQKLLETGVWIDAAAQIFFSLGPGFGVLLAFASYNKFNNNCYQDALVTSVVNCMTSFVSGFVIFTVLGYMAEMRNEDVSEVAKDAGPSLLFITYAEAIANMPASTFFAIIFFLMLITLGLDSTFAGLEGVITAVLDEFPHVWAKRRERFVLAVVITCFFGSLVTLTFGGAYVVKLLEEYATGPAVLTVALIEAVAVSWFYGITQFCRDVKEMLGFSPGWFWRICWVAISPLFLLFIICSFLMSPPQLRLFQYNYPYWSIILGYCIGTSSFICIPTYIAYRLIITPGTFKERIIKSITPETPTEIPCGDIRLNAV

α2C = target: T2, α2C (Homo sapiens, UniProt P18825); assay: PDSP panel binding, α2C
T2 sequence (P18825 1-462): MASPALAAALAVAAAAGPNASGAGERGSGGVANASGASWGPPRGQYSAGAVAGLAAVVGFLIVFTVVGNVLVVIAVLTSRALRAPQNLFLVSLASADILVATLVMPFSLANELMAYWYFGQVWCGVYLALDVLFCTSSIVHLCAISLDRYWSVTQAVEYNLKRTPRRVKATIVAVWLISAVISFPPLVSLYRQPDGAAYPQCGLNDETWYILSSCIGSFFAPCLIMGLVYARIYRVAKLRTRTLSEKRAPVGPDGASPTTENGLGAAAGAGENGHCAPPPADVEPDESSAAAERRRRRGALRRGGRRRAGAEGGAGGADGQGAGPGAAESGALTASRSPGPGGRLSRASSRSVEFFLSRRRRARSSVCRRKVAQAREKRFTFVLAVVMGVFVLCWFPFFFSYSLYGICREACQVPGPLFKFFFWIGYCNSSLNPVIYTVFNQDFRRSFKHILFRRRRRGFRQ

[1] = Human liver microsomal intrinsic clearance; assay type: in vitro ADME; conditions: human; for CLint scaled: liver microsomes, Intrinsic clearance hCLINT, human liver microsomes; for Predicted hepatic clearance hCLHEP: well-stirred organ CL model, binding terms excluded
[2] = Mouse liver microsomal intrinsic clearance; assay type: in vitro ADME; conditions: for Predicted hepatic clearance mCLHEP: well-stirred organ CL model, binding terms excluded; for CLint scaled: liver microsomes
[3] = Mouse plasma protein binding, equilibrium dialysis; assay type: in vitro ADME; conditions: for fraction unbound: mouse, plasma, fu (mPPB), used for Kp,uu
[4] = Discrete mouse in vivo PK study, plasma and brain; conditions: for half-life: ip, 5 mg/kg
[5] = Mouse brain homogenate binding; assay type: in vitro ADME
[6] = Human plasma protein binding, equilibrium dialysis; assay type: in vitro ADME
DAT = DAT (Homo sapiens, UniProt Q01959); assay: PDSP panel binding, DAT; conditions: for selectivity versus DAT: σ1 over DAT
Sequence of DAT (Q01959 whole entry, species assumed): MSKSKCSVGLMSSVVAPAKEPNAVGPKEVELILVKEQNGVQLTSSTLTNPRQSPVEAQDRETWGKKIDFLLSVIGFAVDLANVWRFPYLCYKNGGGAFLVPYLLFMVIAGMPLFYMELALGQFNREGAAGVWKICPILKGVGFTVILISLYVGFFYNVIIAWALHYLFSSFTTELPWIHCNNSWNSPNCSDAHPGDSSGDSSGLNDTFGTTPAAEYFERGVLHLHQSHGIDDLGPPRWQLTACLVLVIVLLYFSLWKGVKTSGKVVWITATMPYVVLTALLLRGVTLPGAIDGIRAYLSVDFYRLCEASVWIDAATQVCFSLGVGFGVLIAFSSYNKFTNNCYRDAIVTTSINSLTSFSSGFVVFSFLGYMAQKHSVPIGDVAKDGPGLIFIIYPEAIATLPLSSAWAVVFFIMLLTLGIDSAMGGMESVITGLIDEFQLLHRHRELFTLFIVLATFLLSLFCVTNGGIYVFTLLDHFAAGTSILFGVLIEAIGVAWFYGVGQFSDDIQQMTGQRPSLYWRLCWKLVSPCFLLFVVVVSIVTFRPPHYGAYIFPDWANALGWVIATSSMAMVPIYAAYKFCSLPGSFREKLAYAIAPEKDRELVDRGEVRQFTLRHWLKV

D1 receptor = D1 receptor (Homo sapiens, UniProt P21728); assay: D1 receptor radioligand binding, [3H]SCH23390, HEK293 membranes
Sequence of D1 receptor (P21728 whole entry): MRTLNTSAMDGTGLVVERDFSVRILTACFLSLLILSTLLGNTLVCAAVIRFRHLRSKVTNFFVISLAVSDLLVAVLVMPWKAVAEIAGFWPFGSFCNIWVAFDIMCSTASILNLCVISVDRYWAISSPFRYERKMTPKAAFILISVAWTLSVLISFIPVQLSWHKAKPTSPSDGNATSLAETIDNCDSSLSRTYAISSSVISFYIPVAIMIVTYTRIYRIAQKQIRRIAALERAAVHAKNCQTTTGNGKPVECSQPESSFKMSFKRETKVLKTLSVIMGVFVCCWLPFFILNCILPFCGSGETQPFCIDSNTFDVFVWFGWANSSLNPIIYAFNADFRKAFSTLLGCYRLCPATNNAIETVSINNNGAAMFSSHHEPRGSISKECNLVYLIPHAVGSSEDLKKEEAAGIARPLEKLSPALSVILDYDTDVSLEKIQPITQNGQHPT

α2A = target: T3, α2A (Homo sapiens, UniProt P08913); assay: PDSP panel binding, α2A
T3 sequence (P08913 1-465): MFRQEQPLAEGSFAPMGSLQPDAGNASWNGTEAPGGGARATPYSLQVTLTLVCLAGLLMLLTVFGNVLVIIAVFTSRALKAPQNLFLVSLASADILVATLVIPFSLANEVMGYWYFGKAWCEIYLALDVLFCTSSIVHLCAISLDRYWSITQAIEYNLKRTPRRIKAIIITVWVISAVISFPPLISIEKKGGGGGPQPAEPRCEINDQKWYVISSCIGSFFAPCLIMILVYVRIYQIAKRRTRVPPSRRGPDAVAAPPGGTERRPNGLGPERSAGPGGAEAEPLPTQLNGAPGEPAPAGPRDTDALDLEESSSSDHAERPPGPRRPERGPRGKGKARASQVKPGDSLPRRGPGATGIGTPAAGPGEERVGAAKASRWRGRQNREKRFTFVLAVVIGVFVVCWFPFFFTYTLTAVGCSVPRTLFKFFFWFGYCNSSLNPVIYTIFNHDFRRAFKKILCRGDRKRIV

Row | Structure (SMILES) | CLint scaled [1] | Predicted hepatic clearance hCLHEP [1] | Predicted hepatic clearance mCLHEP [2] | Ki (D4 receptor) | CLint scaled [2] | also measured
1 | c1ccc(OC[C@@H]2CN(Cc3ccc4[nH]ccc4c3)CCO2)cc1 [Compound 4] | – | – | – | – | – | selectivity for D4 versus σ1 (D4 receptor; D4 over σ1): ~ 13 fold
2 | Fc1ccc(COC2CCN(Cc3ccc4[nH]cnc4c3)CC2)cc1F [Compound 10a, 5-((4-((3,4-difluorobenzyl)oxy)piperidin-1-yl)methyl)-1H-benzo[d]imidazole] | < 20 mL/min/kg | <10 mL/min/kg | 46.0 mL/min/kg | – | – | selectivity against the dopamine receptor family (D4 receptor): > 490 fold; selectivity σ1:σ2 (σ2 receptor): 20; selectivity versus SERT (SERT): 20; Ki (α2C): 853 nM; selectivity versus α2C (α2C; σ1 over α2C): 103; fraction unbound [3]: 0.358; B:P Kp,uu ([4]; IP 5 mg/kg, 5 h, free brain to free plasma concentration): 3.68; half-life ([4]; brain): 546 min; half-life ([4]; plasma): 126 min; fraction unbound [5]: 0.205
3 | Fc1cc(COC2CCN(Cc3ccc4[nH]cnc4c3)CC2)ccc1Cl [Compound 10b, 5-((4-((4-chloro-3-fluorobenzyl)oxy)piperidin-1-yl)methyl)-1H-benzo[d]imidazole] | – | 14.2 mL/min/kg | 45.1 mL/min/kg | – | – | fraction unbound [3]: 0.189; half-life ([4]; brain): 414 min; half-life ([4]; plasma): 222 min; fraction unbound [5]: 0.093
4 | c1cncc(COC2CCN(Cc3cn4ccccc4n3)CC2)c1 [Compound 17e, 2-((4-(pyridin-3-ylmethoxy)piperidin-1-yl)methyl)imidazo [1,2-a]pyridine] | – | – | – | 2.29 µM | – | –
5 | Cc1c(Cl)cccc1NC(=O)CN1CCC(OCc2ccc(F)c(F)c2)CC1 [Compound 18a, N-(3-chloro-2-methylphenyl)-2-(4-((3,4-difluorobenzyl)oxy)piperidin-1-yl)acetamide] | – | 17.6 mL/min/kg | 68.6 mL/min/kg | – | – | –
6 | Cc1cc(NC(=O)CN2CCC(OCc3ccc(F)c(F)c3)CC2)ccc1F [Compound 18d, 2-(4-((3,4-difluorobenzyl)oxy)piperidin-1-yl)-N-(4-fluoro-3-methylphenyl)acetamide] | – | 14.3 mL/min/kg | 69.6 mL/min/kg | – | – | selectivity σ1:σ2 (σ2 receptor): ~ 1.4; Stability in mouse plasma (mPPB column) [3]: c
7 | COc1ccc(CN2CCC[C@H](OCc3ccc(F)c(C)c3)C2)cc1F [Compound 19a, (S)-3-((4-fluoro-3-methylbenzyl)oxy)-1-(3-fluoro-4-methoxybenzyl)piperidine] | 964 mL/min/kg | 19.7 mL/min/kg | 86.8 mL/min/kg | – | > 2400 mL/min/kg | –
8 | COc1ccc(CN2CCC[C@@H](OCc3ccc(F)c(C)c3)C2)cc1F [Compound 19b, (R)-3-((4-fluoro-3-methylbenzyl)oxy)-1-(3-fluoro-4-methoxybenzyl)piperidine] | 674 mL/min/kg | 19.5 mL/min/kg | 82.4 mL/min/kg | – | 961 mL/min/kg | Stability in human plasma (hPPB column) [6]: c
9 | COc1ccc(CN2CCC[C@H](OCc3ccc(C)cc3)C2)cc1F [Compound 19e, (S)-1-(3-fluoro-4-methoxybenzyl)-3-((4-methylbenzyl)oxy)piperidine] | 1130 mL/min/kg | 19.7 mL/min/kg | 83.7 mL/min/kg | – | 1190 mL/min/kg | –
10 | Cc1ccc(CO[C@H]2CCCN(Cc3ccc(C#N)cc3)C2)cc1 [Compound 19f, (S)-4-((3-((4-methylbenzyl)oxy)piperidin-1-yl)methyl) benzonitrile] | 842 mL/min/kg | 19.6 mL/min/kg | 76.0 mL/min/kg | – | 485 mL/min/kg | selectivity against the dopamine receptor family (D4 receptor): > 74 fold; selectivity versus DAT (DAT): 300
11 | Cc1ccc(CO[C@H]2CCCN(Cc3cccc(F)c3)C2)cc1 [Compound 19g, (S)-1-(3-fluorobenzyl)-3-((4-methylbenzyl)oxy)piperidine] | 1400 mL/min/kg | 19.8 mL/min/kg | 86.8 mL/min/kg | > 10 µM | > 2400 mL/min/kg | selectivity against the dopamine receptor family (D4 receptor): > 74 fold; selectivity σ1:σ2 (σ2 receptor): 31; Ki (DAT): 8.81 µM; selectivity versus DAT (DAT): 473
12 | COc1ccc(CO[C@H]2CCCN(Cc3cccc(C)c3)C2)cc1F [Compound 19h, (S)-3-((3-fluoro-4-methoxybenzyl)oxy)-1-(3-methylbenzyl)piperidine] | – | – | – | > 10 µM | – | inhibition at 10 µM (D4 receptor; read-out: D4 % inhibition): 46%; Ki (D1 receptor): > 10 µM

Now from value to compound, other results behind:

Row | CLint scaled [1] | Predicted hepatic clearance hCLHEP [1] | Predicted hepatic clearance mCLHEP [2] | Ki (D4 receptor) | CLint scaled [2] | Structure (SMILES) | also measured
13 | – | – | – | > 10 µM | – | Cc1c(Cl)cccc1NC(=O)CN1CCC2(CCCN2Cc2ccc(F)c(F)c2)CC1 [Compound 24a, N-(3-chloro-2-methylphenyl)-2-(1-(3,4-difluorobenzyl)-1,8-diazaspiro[4.5]decan-8-yl)acetamide] | –
14 | – | – | – | > 10 µM | – | Cc1cc(NC(=O)CN2CCC3(CCCN3Cc3ccc(F)c(F)c3)C2)ccc1F (stereo not drawn) [Compound 24e, 2-(1-(3,4-difluorobenzyl)-1,7-diazaspiro[4.4]nonan-7-yl)-N-(4-fluoro-3-methylphenyl)acetamide] | –
15 | 602 mL/min/kg | 19.5 mL/min/kg | 81.5 mL/min/kg | > 10 µM | 855 mL/min/kg | Cc1cc(NC(=O)CN2CCC3(CCCN(Cc4ccc(F)c(F)c4)C3)C2)ccc1F (stereo not drawn) [Compound 24f, 2-(7-(3,4-difluorobenzyl)-2,7-diazaspiro[4.5]decan-2-yl)-N-(4-fluoro-3-methylphenyl)acetamide] | Stability in mouse plasma (mPPB column) [3]: c
16 | 223 mL/min/kg | 18.4 mL/min/kg | 79.8 mL/min/kg | > 10 µM | 696 mL/min/kg | Fc1ccc(CN2CCCC23CCN(Cc2cn4ccccc4n2)C3)cc1F (stereo not drawn) [Compound 25a, 1-(3,4-difluorobenzyl)-7-(imidazo[1,2-a]pyridin-2-ylmethyl)-1,7-diazaspiro[4.4]nonane] | selectivity σ1:σ2 (σ2 receptor): 6; Ki (α2A): 697 nM; selectivity versus α2A (α2A; σ1 over α2A): 194
17 | – | – | – | > 10 µM | – | Fc1ccc(CN2CCCC3(CCN(Cc4cc5ccc(Cl)cc5[nH]4)C3)C2)cc1F (stereo not drawn) [Compound 25c, 2-((6-chloro-1H-indol-2-yl)methyl)-7-(3,4-difluorobenzyl)-2,7-diazaspiro[4.5]decane] | –
